Data as given in patent publication US20020137929A1, “1 - (3-heterocyclylphenyl) isothiourea, -isourea, -guanidine and -amidine herbicidal agents” (Intellectual Property Department, BASF Aktiengesellschaft, priority 1998, published 2002).

Columns and labels:
[1] = test system: CASOB (Sicklepod); assay: Postemergence herbicidal evaluation; type: in vivo, Cassia obtusifolia; details: postemergence
Procedure, shortened: (§1)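 Each compound, dispersed in an acetone/water mix (50/50) carrying 0.5% TWEEN 20, is nozzle-sprayed at 40 psi on approximately two-week-old seedlings at about 0.0156–0.500 kg/ha. Plants are assessed 4–5 weeks afterward on a 0–9 scale relative to control; duplicate tests are averaged.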

[2] = test system: CHEAL (Lambsquarters, Common); assay: Postemergence herbicidal evaluation; type: in vivo, Chenopodium album; details: postemergence
Procedure, shortened: as §1

[3] = test system: GALAP (Galium); assay: Postemergence herbicidal evaluation; type: in vivo, Galium aparine; details: postemergence
Procedure, shortened: as §1

[4] = test system: ORYSAT (Rice, Tebonnet); assay: Postemergence herbicidal evaluation; type: in vivo, Oryza sativa, (L.) Tebonnet; details: postemergence
Procedure, shortened: as §1

[5] = test system: ZEAMX (Corn, Field); assay: Postemergence herbicidal evaluation; type: in vivo, Zea mays; details: postemergence
Procedure, shortened: as §1

[6] = test system: AMBEL (Ragweed, Common); assay: Preemergence herbicidal evaluation; type: in vivo, Ambrosia artemisifolia; details: rated 4-5 weeks after treatment
Procedure, shortened: (§2)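 Seeds were mixed with potting soil and planted on about one inch of soil, then sprayed with test compound in aqueous acetone at about 0.0156 to 0.500 kg per hectare. Plants grew under standard greenhouse care and were visually rated 0-9 against untreated controls 4-5 weeks post-treatment.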

[7] = test system: SETVI (Foxtail, Green); assay: Preemergence herbicidal evaluation; type: in vivo, Setaria viridis; details: rated 4-5 weeks after treatment
Procedure, shortened: as §2

[8] = test system: GLXMAW (Soybean, Williams); assay: Preemergence herbicidal evaluation; type: in vivo, Glycine max, (L.) Merr. cv Williams; details: rated 4-5 weeks after treatment
Procedure, shortened: as §2

[9] = test system: ORYSAT (Rice, Tebonnet); assay: Preemergence herbicidal evaluation; type: in vivo, Oryza sativa, (L.) Tebonnet; details: rated 4-5 weeks after treatment
Procedure, shortened: as §2

[10] = test system: CYPSE (Flatsedge); assay: Preemergence weed control under flooded paddy conditions; type: in vivo, Cyperus serotinus; details: rated 3-4 weeks after treatment
Procedure, shortened: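 Visual injury scored 0-9 against control three to four weeks post-treatment, greenhouse-grown. Application: acetone/water (50/50) solutions dosed directly into flood water (1.5-3 cm over silt loam, planted top 0.5 cm), roughly 0.0313 to 0.500 kg/ha active ingredient.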

[11] = test system: CYPIR (Rice Flatsedge); assay: Postemergence weed control under flooded paddy conditions; type: in vivo, Cyperus iria; details: postemergence weeds, rated 3 to 4 weeks after treatment
Procedure, shortened: (§3)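 Weeds 3 to 5 cm tall and rice seedlings at the 1.5 to 2.5 leaf stage were flooded, with water held 1.5 to 3 cm above the soil. Compounds in 50/50 v/v aqueous/acetone went into the flood water at about 0.0313 to 0.500 kg/ha. Visual 0-9 ratings versus control were made 3 to 4 weeks later.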

[12] = test system: CYPSE (Flatsedge); assay: as above; type: in vivo, Cyperus serotinus; details: postemergence weeds, rated 3 to 4 weeks after treatment
Procedure, shortened: as §3

[13] = test system: SAGPY (Arrowhead (Pygmaea)); assay: as above; type: in vivo, Sagittaria pygmaea; details: postemergence weeds, rated 3 to 4 weeks after treatment
Procedure, shortened: as §3

COC(=O)C(Cc1ccc(Cl)cc1)N1C(=O)CSC1=Nc1cc(-n2c(=O)cc(C(F)(F)F)n(C)c2=O)c(F)cc1Cl (racemic) [Compound 77, Methyl α-(p-chlorobenzyl)-2-{{2-chloro-5-[3,6-dihydro-3-methyl-2,6-dioxo-4-(trifluoromethyl)-1(2H)-pyrimidinyl]-4-fluorophenyl}imino}-4-oxo-3-thiazolidineacetate, DL-]
CASOB herbicidal rating ([1]; rate 0.0158 kg/ha): 1.0 | CASOB herbicidal rating ([1]; rate 0.0315 kg/ha): 1.0 | CASOB herbicidal rating ([1]; rate 0.0630 kg/ha): 1.0 | CHEAL herbicidal rating ([2]; rate 0.0158 kg/ha): 6.0 | CHEAL herbicidal rating ([2]; rate 0.0315 kg/ha): 9.0 | CHEAL herbicidal rating ([2]; rate 0.0630 kg/ha): 9.0 | GALAP herbicidal rating ([3]; rate 0.0158 kg/ha): 1.0 | GALAP herbicidal rating ([3]; rate 0.0315 kg/ha): 1.0 | GALAP herbicidal rating ([3]; rate 0.0630 kg/ha): 7.0 | ORYSAT herbicidal rating ([4]; rate 0.0158 kg/ha): 2.0 | ORYSAT herbicidal rating ([4]; rate 0.0315 kg/ha): 2.0 | ORYSAT herbicidal rating ([4]; rate 0.0630 kg/ha): 3.0 | ZEAMX herbicidal rating ([5]; rate 0.0158 kg/ha): 4.0 | ZEAMX herbicidal rating ([5]; rate 0.0315 kg/ha): 3.5 | ZEAMX herbicidal rating ([5]; rate 0.0630 kg/ha): 4.5 | Preemergence herbicidal rating AMBEL ([6]; rate 0.0156 kg/ha): 0.0 | Preemergence herbicidal rating AMBEL ([6]; rate 0.0313 kg/ha): 2.0 | Preemergence herbicidal rating AMBEL ([6]; rate 0.0625 kg/ha): 1.0 | Preemergence herbicidal rating AMBEL ([6]; rate 0.1250 kg/ha): 2.0 | Preemergence herbicidal rating AMBEL ([6]; rate 0.2500 kg/ha): 7.0 | Preemergence herbicidal rating SETVI ([7]; rate 0.0156 kg/ha): 0.0 | Preemergence herbicidal rating SETVI ([7]; rate 0.0313 kg/ha): 0.0 | Preemergence herbicidal rating SETVI ([7]; rate 0.0625 kg/ha): 0.0 | Preemergence herbicidal rating SETVI ([7]; rate 0.1250 kg/ha): 0.0 | Preemergence herbicidal rating SETVI ([7]; rate 0.2500 kg/ha): 9.0 | Preemergence herbicidal rating GLXMAW ([8]; rate 0.0156 kg/ha): 0.0 | Preemergence herbicidal rating GLXMAW ([8]; rate 0.0313 kg/ha): 0.0 | Preemergence herbicidal rating GLXMAW ([8]; rate 0.0625 kg/ha): 0.0 | Preemergence herbicidal rating GLXMAW ([8]; rate 0.1250 kg/ha): 0.0 | Preemergence herbicidal rating GLXMAW ([8]; rate 0.2500 kg/ha): 1.0 | Preemergence herbicidal rating ORYSAT ([9]; rate 0.0156 kg/ha): 0.0 | Preemergence herbicidal rating ORYSAT ([9]; rate 0.0313 kg/ha): 0.0 | Preemergence herbicidal rating ORYSAT ([9]; rate 0.0625 kg/ha): 0.0 | Preemergence herbicidal rating ORYSAT ([9]; rate 0.1250 kg/ha): 0.0 | Preemergence herbicidal rating ORYSAT ([9]; rate 0.2500 kg/ha): 0.0 | CYPSE herbicidal effect rating ([10]; 0.0313 kg/ha): 0.0 | CYPSE herbicidal effect rating ([10]; 0.0625 kg/ha): 0.0 | CYPSE herbicidal effect rating ([10]; 0.1250 kg/ha): 0.0 | CYPSE herbicidal effect rating ([10]; 0.2500 kg/ha): 4.0 | Herbicidal rating CYPIR ([11]; Rate 0.0313 kg/ha): 0.0 | Herbicidal rating CYPIR ([11]; Rate 0.0625 kg/ha): 0.0 | Herbicidal rating CYPIR ([11]; Rate 0.1250 kg/ha): 0.0 | Herbicidal rating CYPIR ([11]; Rate 0.2500 kg/ha): 0.0 | Herbicidal rating CYPSE ([12]; Rate 0.0313 kg/ha): 0.0 | Herbicidal rating CYPSE ([12]; Rate 0.0625 kg/ha): 0.0 | Herbicidal rating CYPSE ([12]; Rate 0.1250 kg/ha): 0.0 | Herbicidal rating CYPSE ([12]; Rate 0.2500 kg/ha): 4.0 | Herbicidal rating SAGPY ([13]; Rate 0.0313 kg/ha): 0.0 | Herbicidal rating SAGPY ([13]; Rate 0.0625 kg/ha): 0.0 | Herbicidal rating SAGPY ([13]; Rate 0.1250 kg/ha): 0.0 | Herbicidal rating SAGPY ([13]; Rate 0.2500 kg/ha): 0.0
